Like-named read-outs stand apart in the source and are kept apart here.
Key:
in vitro = conditions: pig, LC50, WST-1 viability
CYP 1A2 = tested on: CYP 1A2
Procedure: (§1) Several CYP450 enzymatic activities were investigated in PICM-19H cells to determine the presence and inducible nature of major CYP450 isoforms. […] Cells were washed with PBS and appropriate inducer medium was added for 48 h prior to experimentation.
(§2) CYP450 activity was assessed in T25 cultures of PICM-19H cells that were grown for 3 wk post-passage. T25 cultures of APH or HepG2 C3A cells were tested after 3 d of primary culture and at 1 wk post-passage or near confluency, respectively. […] After the initial induction, cells were washed and given a non-fluorescent substrate for CYP1A1, CYP1A2, CYP2, or CYP3A (7-ERF, 7-MRF, MFC, and BFC, respectively). […] Medium samples were collected, centrifuged to remove cell debris (14,000×g, 2 min) and frozen at −80° C. until analyzed. […] Briefly, samples were incubated at 37° C. with or without β-glucuronidase/arylsulphatase (15 Fishman/120 Roy units/ml, Roche Applied Sciences) in pH 4.5 acetate buffer for 2 h to release any fluorescent reaction product that had been conjugated via sulfation or glucurondation phase II conjugation reactions. Standard curves contained resorufin or 7-HFC were treated identically to the experimental medium samples. Fluorescence was determined in an HTS 7000 plate reader; excitation/emission filter pairs were 530/590 and 410/510 for resorufin and 7-HFC, respectively. To determine relative conjugation activity, fluorescence was also determined directly without incubating first in β-glucuronidase/arylsulphatase. Since conjugated forms of resorufin and 7-HFC are non-fluorescent, the difference between the direct and indirect fluorescence measurements represents the amount of product which had been modified by conjugating enzymes.

CYP1A1 = conditions: pig
Procedure: as §1, §2

CYP2 = tested on: CYP2
Procedure: as §1, §2

| SMILES | toxicity in glutathione-depleted cells (PICM-19H cells) | CC50 (PICM-19H cells; pig) [mM] | CC50 (in vitro) [mM] | increase in BFCD activity compared to non-induced controls (CYP3A; pig) | MROD activity (in words) (CYP 1A2) | increase in EROD activity (CYP1A1) [fold] | MFCD activity induction (in words) (CYP2) | induction of BFCD activity (CYP3A; PICM-19H cells, 48 h with 5 μM 3-MC) [fold] | induction of MROD activity (CYP 1A2; PICM-19H cells, 48 h with 5 μM 3-MC, vs non-induced) [fold] | MFCD activity induction (in words) (CYP2; PICM-19H cells, 48 h with 1 mM PHB, 50 μM Rif or 5 μM 3-MC) |
| --- | --- | --- | --- | --- | --- | --- | --- | --- | --- | --- |
| CC(=O)Nc1ccc(O)cc1 [acetaminophen] | enhanced | ~13 | 12.6 ± 0.75 | – | – | – | – | – | – | – |
| CCC1(c2ccccc2)C(=O)NC(=O)NC1=O [PHB, phenobarbital] | – | – | – | approximately 50% | low | 7 | equally induced | – | – | – |
| Cc1ccc2cc3c(ccc4ccccc43)c3c2c1CC3 [3-MC, 3-methylcholanthrene] | – | – | – | – | – | 198 | – | 5.8 | 5.5 | equally induced |

— US20090291064A1 (priority 2008, published 2009)
